Results reported in ChEMBL document CHEMBL2331167, “Inhibitory effect of novel somatostatin peptide analogues on human cancer cell growth based on the selective inhibition of DNA polymerase β” (Bioorg Med Chem, 2013).
Activity calls are given as the source filed them. No cut-off for these calls is given here.

Key:
[1] = test system: HCT-116; test: Induction of apoptosis in p53 +/+ human HCT116 cells assessed as apoptotic cells at 13.2 uM incubated for 24 hrs by TUNEL analysis; type: functional
[2] = biological target: DNA nucleotidylexotransferase (Bos taurus, UniProt P06526); test: Inhibition of calf TdT polymerase measured at 37 degC for 60 mins
[3] = biological target: T1, DNA polymerase iota (Homo sapiens, UniProt Q9UNA4); test: Inhibition of human DNA polymerase iota using poly(dA)/oligo(dT)18 (A/T, 2/1)/dTTP DNA template-primer substrate measured at 37 degC for 60 mins
T1 sequence (Q9UNA4 whole entry): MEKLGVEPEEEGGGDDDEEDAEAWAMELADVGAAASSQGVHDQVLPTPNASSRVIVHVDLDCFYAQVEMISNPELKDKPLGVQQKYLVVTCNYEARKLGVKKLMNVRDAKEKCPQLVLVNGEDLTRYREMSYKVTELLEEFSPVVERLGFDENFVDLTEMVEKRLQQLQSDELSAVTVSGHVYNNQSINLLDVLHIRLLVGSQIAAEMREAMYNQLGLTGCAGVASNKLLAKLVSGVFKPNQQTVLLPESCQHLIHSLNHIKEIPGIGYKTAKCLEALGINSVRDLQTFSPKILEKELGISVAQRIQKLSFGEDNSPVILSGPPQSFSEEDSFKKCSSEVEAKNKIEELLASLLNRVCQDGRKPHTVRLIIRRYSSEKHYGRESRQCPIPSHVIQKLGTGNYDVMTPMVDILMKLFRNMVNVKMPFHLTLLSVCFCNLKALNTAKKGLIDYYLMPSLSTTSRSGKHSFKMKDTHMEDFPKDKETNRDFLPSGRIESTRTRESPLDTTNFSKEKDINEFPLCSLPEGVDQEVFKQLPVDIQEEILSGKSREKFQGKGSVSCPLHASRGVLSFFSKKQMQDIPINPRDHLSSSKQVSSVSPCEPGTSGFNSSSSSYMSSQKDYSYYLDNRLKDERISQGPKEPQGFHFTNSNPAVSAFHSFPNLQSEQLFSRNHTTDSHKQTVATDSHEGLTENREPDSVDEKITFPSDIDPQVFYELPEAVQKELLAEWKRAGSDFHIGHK

[4] = test system: HCT-116; test: Cytotoxicity against p53 -/- human HCT116 cells assessed as growth inhibition at 200 uM incubated for 24 hrs by WST-1 assay; type: functional, cell-based
[5] = test system: HCT-116; test: Cytotoxicity against MMS-induced p53 -/- human HCT116 cells assessed as reduction in clonogenic survival at 13.7 uM incubated for 24 hrs by WST-1 assay relative to control; type: functional
[6] = Cytotoxicity against human dermal fibroblasts; conditions: hdf
[7] = biological target: DNA polymerase beta (Rattus norvegicus, UniProt P06766); test: Inhibition of rat DNA polymerase beta using poly(dA)/oligo(dT)18 (A/T, 2/1)/dTTP DNA template-primer substrate measured at 37 degC for 60 mins
[8] = test system: HCT-116; test: Cytotoxicity against MMS-induced p53 +/+ human HCT116 cells assessed as reduction in clonogenic survival at 13.2 uM incubated for 24 hrs by WST-1 assay relative to control; type: functional
[9] = test system: HCT-116; test: Cytotoxicity against p53 +/+ human HCT116 cells assessed as growth inhibition at 200 uM incubated for 24 hrs by WST-1 assay; type: functional, cell-based
[10] = test system: HCT-116; test: Induction of apoptosis in p53 -/- human HCT116 cells assessed as apoptotic cells at 13.7 uM incubated for 24 hrs by TUNEL analysis; type: functional, cell-based
[11] = Inhibition of human DNA polymerase epsilon using poly(dA)/oligo(dT)18 (A/T, 2/1)/dTTP DNA template-primer substrate measured at 37 degC for 60 mins
[12] = biological target: T2, DNA polymerase lambda (Homo sapiens, UniProt Q9UGP5); test: Inhibition of human DNA polymerase lambda using poly(dA)/oligo(dT)18 (A/T, 2/1)/dTTP DNA template-primer substrate measured at 37 degC for 60 mins
T2 sequence (Q9UGP5 whole entry): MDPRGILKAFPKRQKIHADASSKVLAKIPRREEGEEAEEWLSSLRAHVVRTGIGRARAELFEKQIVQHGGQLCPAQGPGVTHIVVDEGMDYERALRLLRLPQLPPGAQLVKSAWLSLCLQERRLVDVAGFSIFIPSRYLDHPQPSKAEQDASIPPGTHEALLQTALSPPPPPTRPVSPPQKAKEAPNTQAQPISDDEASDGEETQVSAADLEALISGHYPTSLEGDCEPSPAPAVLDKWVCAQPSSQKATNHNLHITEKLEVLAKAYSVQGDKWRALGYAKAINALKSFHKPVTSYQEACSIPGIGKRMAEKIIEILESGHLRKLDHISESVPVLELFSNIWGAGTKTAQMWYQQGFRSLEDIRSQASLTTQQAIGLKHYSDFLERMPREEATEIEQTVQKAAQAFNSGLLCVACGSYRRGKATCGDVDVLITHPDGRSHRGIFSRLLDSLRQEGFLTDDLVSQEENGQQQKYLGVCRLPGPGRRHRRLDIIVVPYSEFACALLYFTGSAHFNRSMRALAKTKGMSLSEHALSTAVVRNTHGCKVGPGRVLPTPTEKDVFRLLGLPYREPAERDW

[13] = biological target: DNA-directed DNA/RNA polymerase mu (Homo sapiens, UniProt Q9NP87); test: Inhibition of human DNA polymerase mu using poly(dA)/oligo(dT)18 (A/T, 2/1)/dTTP DNA template-primer substrate measured at 37 degC for 60 mins
[14] = test system: HCT-116; test: Cytotoxicity against p53 -/- human HCT116 cells assessed as growth inhibition incubated for 24 hrs by WST-1 assay; type: functional; conditions: HCT-116, 24 h, read-out: LD50 (the source's name)
[15] = test system: HCT-116; test: Induction of apoptosis in p53 +/+ human HCT116 cells assessed as DNA fragmentation at 13.2 uM incubated for 24 hrs by agarose gel electrophoresis; type: functional, cell-based

Sequence of DNA-directed DNA/RNA polymerase mu (Q9NP87 whole entry): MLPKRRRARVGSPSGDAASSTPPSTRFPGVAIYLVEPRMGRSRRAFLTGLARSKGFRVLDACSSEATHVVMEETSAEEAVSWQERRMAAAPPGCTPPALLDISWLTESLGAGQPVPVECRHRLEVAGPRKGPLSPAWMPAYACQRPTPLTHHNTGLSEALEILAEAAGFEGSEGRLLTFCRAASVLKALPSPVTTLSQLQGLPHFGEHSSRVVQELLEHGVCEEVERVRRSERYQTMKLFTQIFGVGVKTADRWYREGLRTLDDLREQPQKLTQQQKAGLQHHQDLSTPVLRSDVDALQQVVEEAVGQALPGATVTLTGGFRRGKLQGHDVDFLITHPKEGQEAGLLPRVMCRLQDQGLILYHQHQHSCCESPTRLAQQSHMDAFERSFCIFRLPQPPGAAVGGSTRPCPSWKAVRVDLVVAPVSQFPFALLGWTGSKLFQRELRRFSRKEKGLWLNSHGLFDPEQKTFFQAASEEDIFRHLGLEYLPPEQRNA
Sequence of DNA nucleotidylexotransferase (P06526 whole entry): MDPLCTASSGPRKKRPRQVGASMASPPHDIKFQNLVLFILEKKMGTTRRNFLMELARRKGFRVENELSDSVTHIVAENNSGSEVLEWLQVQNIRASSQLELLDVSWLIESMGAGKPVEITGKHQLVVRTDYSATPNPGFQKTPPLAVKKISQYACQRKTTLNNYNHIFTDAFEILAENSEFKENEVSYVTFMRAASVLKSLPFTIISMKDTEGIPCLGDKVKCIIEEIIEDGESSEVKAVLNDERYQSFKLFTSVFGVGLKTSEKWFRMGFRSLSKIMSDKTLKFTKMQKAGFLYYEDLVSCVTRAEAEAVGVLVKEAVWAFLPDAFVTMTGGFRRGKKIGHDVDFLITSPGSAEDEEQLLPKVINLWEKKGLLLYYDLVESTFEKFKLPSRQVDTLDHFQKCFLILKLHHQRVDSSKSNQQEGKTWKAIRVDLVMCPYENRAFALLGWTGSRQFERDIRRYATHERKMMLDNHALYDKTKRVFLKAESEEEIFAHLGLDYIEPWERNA

SMILES: CC[C@H](C)[C@H](NC(=O)[C@H](Cc1ccc(O)cc1)NC(=O)OC(C)(C)C)C(=O)Nc1cccc2ccccc12
- fold change (FC) [1]: 5
- IC50 [2]: > 200 µM
- IC50 [3]: > 200 µM
- growth inhibition (GI) [4]: Active
- fold change (FC) [5]: 25
- Activity [6]: Non-toxic
- IC50 [7]: 11.5 µM
- fold change (FC) [8]: 2
- growth inhibition (GI) [9]: Active
- Activity [10]: Active
- IC50 [11]: > 200 µM
- IC50 [12]: > 200 µM
- IC50 [13]: > 200 µM
- CC50 [14]: 13.7 µM
- Activity [15]: Active
